Data on four compounds can be found in patent publication US20040224954A1, “Substituted 1H-quinoxalin-2-one compounds and substituted 4-aryl- and 4-heteroarylcyclohexane compounds” (priority 2001, published 2004).

Counter-ions that a name gives are not always drawn.

In one data set the test system is Male NMRI mice. As to the kind of experiment: phenylquinone-induced writhing in mice (analgesic efficacy). It is filed as in vivo. The following applies: 10 mg/kg i.v., phenylquinone i.p. 10 minutes after compound, writhing counted 5-20 minutes after phenylquinone. As for the experimental part:
The investigation into analgesic efficacy was performed by phenylquinone-induced writhing in mice (modified after: I. C. Hendershot, J. Forsaith, J. Pharmacol. Exp. There. 125, 237-240 (1959)). The corresponding literature description is hereby introduced as a reference and is deemed to be part of the disclosure.
Male NMRI mice weighing from 25 to 30 g were used for this purpose. Groups of 10 animals per substance dose received, 10 minutes after intravenous administration of the compounds tested, 0.3 ml/mouse of a 0.02% aqueous solution of phenylquinone (phenylbenzoquinone, Sigma, Deisenhofen; solution prepared with addition of 5% of ethanol and stored in a water bath at 45° C.) administered intraperitoneally. The animals were placed individually in observation cages. A push button counter was used to record the number of pain-induced stretching movements (writhing reactions=straightening of the torso with stretching of the rear extremities) for 5-20 minutes after phenylquinone administration. The control was provided by animals which received only physiological common salt solution.
The compounds were tested at the standard dosage of 10 mg/kg. Inhibition of the writhing reactions by a substance was calculated according to the following formula: [formula]
The in-depth investigation into analgesic efficacy was performed using phenylquinone-induced writhing in mice, as described above.

With `COc1cccc(C2(O)CCC(OC(=O)c3nc4cc(C)c(C)cc4[nH]c3=O)CC2CN(C)C)c1` (centres unmarked) [Example 3, 6,7-dimethyl-3-oxo-3,4-dihydroquinoxaline 2-carboxylic acid [3′-(N,N-dimethylaminomethyl)-4′-hydroxy-4′-(m-methoxyphenyl)-cyclohexyl] ester], in the data set with Male NMRI mice, the “% inhibition of writhing reactions” value stood at 90%.

`COc1cccc(C2(O)CCC(NC(=O)c3nc4cc(Cl)c(Cl)cc4[nH]c3=O)CC2CN(C)C)c1` (centres unmarked) [Example 2, 6,7-dichloro-3-oxo-3,4-dihydroquinoxaline 2-carboxylic acid [3′-(N,N-dimethylaminomethyl)-4′-hydroxy-4′-(m-methoxyphenyl)-cyclohexyl]amide]: the “% inhibition of writhing reactions” value in the data set on Male NMRI mice is given as 55%.

For `COc1cccc(C2(O)CCC(NC(=O)c3nc4cc(C)c(C)cc4[nH]c3=O)CC2CN(C)C)c1` (centres unmarked) [Example 1, 6,7-dimethyl-3-oxo-3,4-dihydroquinoxaline 2-carboxylic acid [3′-(N,N-dimethylaminomethyl)-4′-hydroxy-4′-(m-methoxyphenyl)-cyclohexyl]amide hydrochloride], the “% inhibition of writhing reactions” value in the data set on Male NMRI mice is recorded as 72%.

The compound `COc1cccc(C2(O)CCC(OC(=O)c3nc4cc(Cl)c(Cl)cc4[nH]c3=O)CC2CN(C)C)c1` (centres unmarked) [Example 4, 6,7-dichloro-3-oxo-3,4-dihydroquinoxaline 2-carboxylic acid [3′-(N,N-dimethylaminomethyl)-4′-hydroxy-4′-(m-methoxyphenyl)-cyclohexyl] ester] displayed a melting point of 175 to 177 °C. Besides, the “% inhibition of writhing reactions” value with Male NMRI mice was found to be 84%.

By melting point is commonly meant the temperature of the solid-liquid transition.
